Experimental data from patent publication US10780174B2, “Lipid-linked prodrugs” (The University of British Columbia, priority 2015, dated 2020).

What was measured:
[1] = In vitro degradation of lipid-linked prodrugs in LNP, mouse plasma; assay type: in vitro ADME; conditions: LNP; for prodrug cleavage/degradation after 1 h in plasma: 37° C., mouse plasma
Experimental: (§1) Quantitation of prodrugs by HPLC: LD-DEX/DTX were quantified by ultra high-pressure liquid chromatography (UHPLC) using a Waters Acquity™ UPLC system equipped with a photodiode array detector (PDA) and evaporative light scattering (ELS) detector; Empower™ data acquisition software version 3.0 was used (Waters™, USA). Separations were performed using a Waters Acquity™ BEH C18 column (1.7 μm, 2.1×100 mm) at a flow rate of 0.5 ml/min, with mobile phases A and B consisting of methanol/10 mM ammonium bicarbonate (80/20% v/v) and methanol/acetonitrile (80/20% v/v), respectively. The mobile phases were delivered at a programmed linear gradient (45%-80% B in 1 min then to 99% B at 2 min) at a column temperature of 55° C. The analyte was measured by PDA (at a wavelength of 239 nm) and ELS detector against calibration standard curves. For the analysis of LD-DEX/DTX breakdown to active compound, linear gradients of 20/80% to 100/0% (acetonitrile/water, v/v) over 7 min were used.
To determine the biodegradability of the dexamethasone or docetaxel prodrugs (LD-DEX/DTX), 1 mg/mL LNP was incubated in mouse plasma (Cedarlane™, Burlington, Ontario) or PBS supplemented with 10 U of purified esterase (Sigma-Aldrich™, St. […] Post incubation, four volumes of chloroform/methanol (2:1) was added and the mixture was vortex mixed. Samples were centrifuged at 13,000 g for 5 minutes and the upper phase was discarded. The remaining organic phase was dried down under vacuum and the resulting lipid extract was dissolved in methanol/acetonitrile (1:1). Quantity of parent LD-DEX/DTX compound was determined by ultra high pressure liquid chromatography on a Waters Acquity™ H-Class UPLC System™ equipped with a BEH C18 column and a photodiode array detector.

[2] = Prodrug incorporation (entrapment) in lipid nanoparticles, UHPLC; assay type: physicochemical
Experimental: (§2) Preparation of LNP Systems: PC-Chol LNP systems were prepared by rapidly mixing POPC, cholesterol, lipid-linked prodrug and PEG-DMPE (in molar ratio of 49/39/10/2) dissolved in ethanol with phosphate-buffered saline using a T-junction mixer. Formulations were dialyzed against phosphate-buffered saline to remove residual ethanol and to raise the pH to 7.4. PC-TO and ionizable LNP systems were prepared in the same way except that the lipid compositions for these systems are: POPC, triolein, lipid-linked prodrug and PEG-DSPE (in molar ration of 19/70/10/1), and ionizable lipid, DSPC, cholesterol, lipid-linked prodrug and PEG-DMPE (in molar ration of 40/10/38.5/10/1.5), respectively.
as §1

[3] = tested on: immunostimulatory effects of LNP-CpG (plasma cytokines); assay: In vivo immune suppression by LD-DEX prodrugs, LNP-CpG model; design: species or system C57Bl/6 mice; conditions: mice, i.v., 10 mg/kg of CpG, 2 h post injection
Experimental: 6-8 Weeks old female C57Bl/6 mice (Charles River Laboratories™, Wilmington, Mass.) were injected intravenously with lipid nanoparticles containing CpG DNA oligonucleotides (10 mg/kg), mRNA (3 mg/kg) or plasmid DNA (pDNA) (1 mg/kg). Animals were euthanized 2 hours post-injection and blood was collected via intracardiac or saphenous sampling. Plasma was separated from whole blood by centrifugation and analyzed for proinflammatory cytokines using the Mesoscale Proinflammatory Multiplex™ kit (Rockville, Md.) according to manufacturer's instruction. All procedures were approved by the Animal Care Committee at the University of British Columbia and were performed in accordance with guidelines established by the Canadian Council on Animal Care.

[4] = Particle size and polydispersity of LNP containing prodrug (dynamic light scattering); assay type: physicochemical; conditions: PDI in brackets
Experimental: as §2
Characterization of LNP: Particle size was determined by dynamic light scattering using a Malvern Zetasizer Nano ZS™ (Malvern, UK) following buffer exchange into phosphate-buffered saline. Number-weighted size and distribution data was used. Lipid concentrations were determined by measuring total cholesterol using the Cholesterol E enzymatic assay kit from Wako Chemicals USA™ (Richmond, Va.). The morphology of LNP formulations containing LD-DEX was analyzed by cryogenic-transmission electron microscopy (cryoTEM) as described previously [Leung et al. (2012)].

[5] = tested on: IL1β expression in RAW 264.7 mouse macrophage cells; assay: In vitro immune suppression, LPS-treated RAW 264.7 cells, IL1β qRT-PCR; assay type: cell-based; conditions: 2 ng/mL LPS, 4 h
Experimental: RAW 264.7 mouse macrophage cells were seeded at 250,000 cells per mL on 12-well plates and incubated at 37° C. overnight. Lipopolysaccharide (LPS) was dissolved in phosphate buffered saline at a concentration of 2 μg/ml. Cells were treated with lipid nanoparticles containing LD-DEX prodrugs and 2 ng/ml of LPS for 4 hours. This LPS concentration was chosen due to its ability to increase IL1β expression approximately 1000 times as compared to untreated cells. At the end of the incubation period, culture medium was aspirated and cellular RNA was extracted using the Purelink RNA™ extraction kit according to manufacturer's protocol (Life Technologies™, Burlington, ON). The concentration of extracted RNA was determined using a Nanodrop Lite™ (Thermo Fisher™). 1 μg of RNA was converted to cDNA using the High Capacity cDNA Reverse Transcription kit (Life Technologies™, Burlington, ON). In order to validate the sample preparation, a no template control and a negative reverse transcriptase control were included. The cDNA was then quantified using comparative real-time qPCR where the Ct (threshold cycle) values are converted to relative quantity using the 2-ΔΔCT method. The primer-probe sets were designed to bind to cDNA of Interleukin-1β(IL1β). Hypoxanthine-guanine phosphoribosyltransferase (HPRT) was chosen as the endogenous normalizer gene, which is known to maintain consistent levels with varying treatments.

OVCAR3 cells = assay: In vitro growth inhibition by LD-DTX prodrugs, cell viability assay; assay type: cell-based; conditions: Homo sapiens, OVCAR-3, 48 h, Ovcar3 cells
Experimental: OVCAR3 cells were obtained from ATCC (Manassas, Va.). Cells were seeded at 12,000 cells per well on 96-well plates and treated with free docetaxel, prodrugs, lipid nanoparticle formulations with or without prodrugs at 0 to 15 μM of docetaxel for 48 h. Cell viability was determined by a colorimetric assay, based on the tetrazolium salt MIT (3-(4,5-dimethylthiazol-2-yl)-2,5-diphenyltetrazolium bromide), as described previously [Mossman 1983].

[6] = tested on: purified porcine esterase; assay: In vitro degradation of lipid-linked prodrugs in LNP, purified esterase in PBS; conditions: LNP, 24 h incubation
[7] = LD-DEX prodrug in ionizable LNP
[8] = LD-DTX prodrug in ionizable LNP

SMILES	prodrug cleavage/degradation after 1 h in plasma [1]	% Entrapment PC-Chol LNP ([2]; LD-DEX prodrug in PC-Chol LNP) [%]	% Entrapment [ionizable LNP] [2, 7]	input amount incorporated into the final lipid nanoparticle preparation ([2]; of the input amount)	plasma TNFα and KC/GRO levels versus control LNP-CpG [3]	Particle size (PDI) PC-Chol LNP ([4]; LD-DEX prodrug in PC-Chol LNP)	Particle size (PDI) [ionizable LNP] [4, 7]	IL1β expression versus control LNP without prodrug [5]	plasma cytokine (TNFα, IL-6 and IL-10) levels versus control LNP-CpG [3]	release of active drug (UPLC chromatogram) in mouse plasma ([1]; 24 h incubation)	IC50 (OVCAR3 cells; Free drugs) [nM]	IC50 (OVCAR3 cells; PC-Chol LNP) [nM]	IC50 (OVCAR3 cells; PC-TO LNP) [nM]	IC50 (OVCAR3 cells; ionizable LNP) [nM]	% Entrapment PC-Chol LNP ([2]; LD-DTX prodrug in PC-Chol LNP) [%]	% Entrapment [ionizable LNP] [2, 8]	release of active drug (UPLC chromatogram) in purified esterase [6]	Particle size (PDI) PC-Chol LNP ([4]; LD-DTX prodrug in PC-Chol LNP)	Particle size (PDI) [ionizable LNP] [4, 8]
CCCCC/C=C\C/C=C\CCCCCCCC(=O)OC(COC(=O)CCC(=O)OCC(=O)[C@@]1(O)[C@H](C)C[C@H]2[C@@H]3CCC4=CC(=O)C=C[C@]4(C)[C@@]3(F)[C@@H](O)C[C@@]21C)CN(C)C (some centres unmarked) [LD01-DEX]	significant cleavage	72	[65] %	65-72 mol %	marked reduction in cytokine levels	77 (0.06) nm	[51 (0.04)] nm												
CCCCC/C=C\C/C=C\CCCCCCCCOCCCCSCC(=O)[C@@]1(O)[C@H](C)C[C@H]2[C@@H]3CCC4=CC(=O)C=C[C@]4(C)[C@@]3(F)[C@@H](O)C[C@@]21C [LD07-DEX, (8S,9R,10S,11S,13S,14S,16R,17R)-9-fluoro-11,17-dihydroxy-10,13,16-trimethyl-17-(2-((4-(linoleyloxy)butyl)thio)acetyl)-6,7,8,9,10,11,12,13,14,15,16,17-dodecahydro-3H-cyclopenta[a]phenanthren-3-one]	no degradation	90	[88] %		did not exhibit any immunosuppressive effects	56 (0.03) nm	[47 (0.04)] nm	IL1β expression at a similar level to control											
CCCCCCCC/C=C\CCCCCCCCOC(=O)CCC(=O)OCC(=O)[C@@]1(O)[C@H](C)C[C@H]2[C@@H]3CCC4=CC(=O)C=C[C@]4(C)[C@@]3(F)[C@@H](O)C[C@@]21C [LD13-DEX, oleyl 2-((8S,9R,10S,11S,13S,14S,16R,17R)-9-fluoro-11,17-dihydroxy-10,13,16-trimethyl-3-oxo-6,7,8,9,10,11,12,13,14,15,16,17-dodecahydro-3H-cyclopenta[a]phenanthren-17-yl)-2-oxoethyl succinate]	partially degraded	100	[96] %			61 (0.03) nm	[49 (0.07)] nm	able to reduce IL1β expression	able to suppress plasma cytokine										
CCCCCCCCCCCCCC(=O)OCC(COC(=O)CCC(=O)O[C@@H](C(=O)O[C@H]1C[C@@]2(O)[C@@H](OC(=O)c3ccccc3)[C@@H]3[C@]4(OC(C)=O)CO[C@@H]4C[C@H](O)[C@@]3(C)C(=O)[C@H](O)C(=C1C)C2(C)C)[C@@H](NC(=O)OC(C)(C)C)c1ccccc1)OC(=O)CCCCCCCCCCCCC (stereo partly drawn) [LD22-DTX, (2R,3S)-1-(((2aR,4S,4aS,6R,9S,11S,12S,12aR,12bS)-12b-acetoxy-12-(benzoyloxy)-4,6,11-trihydroxy-4a,8,13,13-tetramethyl-5-oxo-2a,3,4,4a,5,6,9,10,11,12,12a,12b-dodecahydro-1H-7,11-methanocyclodeca[3,4]benzo[1,2-b]oxet-9-yl)oxy)-3-((tert-butoxycarbonyl)amino)-1-oxo-3-phenylpropan-2-yl (2,3-bis(tetradecanoyloxy)propyl) succinate]	largely not degraded									active docetaxel (DTX) was observed	51.7	~1550	315	93	93	[100] %	active docetaxel (DTX) was observed	65 (0.04) nm	[39 (0.07)] nm
